Assay type in all cases: cell-based, human
The test system of test [1] is HEC-1-A cells. Kind of test: MTT cytotoxicity of anticancer peptides. How it is done: (§1) Cells were seeded into 96-well tissue culture plates at a concentration of 1×10^4 cells/200 μl/well overnight. Subsequently, the cells were treated with serial dilutions of ACP, scrambled ACP, or non-ACP. After 48 h of incubation, the cell viability of each line was determined by the MTT colorimetric assay (Sigma-Aldrich).

The test system of another test is HUVEC. As to conditions: MTT, 48 h, mean ± SD, ND: no detection, read-out: IC50 (50% decrease of cell viability). How it is done: as §1
Test [2] concerns HEC-1-A cells. Description: Wound healing assay (Culture-Insert). As to conditions: peptides 50 µM, 24 h. How it is done: HEC-1-A cells (3×10^4 cells/70 μl/well) were seeded into a Culture-Insert 2 well (Ibidi, Munich, Germany) overnight. Afterward, inserts were removed, peptides (50 µM) were added, the status of the scratch wounds was monitored using an inverted microscope at 0 h (removal of Culture-Insert) and 24 h, and representative images were collected. The results were presented as the percentage of wound closure, calculated as follows: [wound area (initial) - wound area (final)]/wound area (initial)×100. The wound area was measured using software image J.

The next test has as its system AKT. Kind of test: Western blot of AKT phosphorylation. As to conditions: HEC-1-A, 100 µM, 6 h (Fig. S3). How it is done:
The cells were lysed on ice with 100 μl of lysis buffer and centrifuged at 13,000 g for 20 min at 4 °C. The lysate proteins were quantified using BCA Protein Assay Reagent. Each sample load comprised 30 μg total proteins per lane and was resolved by 12.5% SDS-PAGE. After being transferred onto the PVDF membranes, the membranes were blocked with 5% skimmed dried milk for 1 h and incubated overnight with primary antibodies, including anti-DHCR24, anti-AKT, anti-pAKT, anti-p-GSK3beta, anti-mTOR, and anti-p-mTOR (dilution: 1:1,000; Thermo); anti-S6K1, anti-p-p53, anti-cyclin D1, and anti-cleaved caspase 3 (dilution: 1:500; Thermo); anti-pS6K1 (dilution: 1:2,000; Thermo); anti-p53 and anti-GSK3beta (dilution: 1:200; Thermo); anti-BAX (dilution: 1:2,000; Thermo); anti-p-FoxO3A, anti-HIF-1α, and anti-actin (dilution: 1:1,500; GeneTex Inc., Irvine, CA, USA). The membrane was then washed and incubated with anti-rabbit IgG secondary antibodies followed by horseradish peroxidase. The protein expressions were visualized with an ECL kit (Pierce, Rockford, IL, USA) according to the manufacturer's instructions. Actin acted as the loading control.
Figure S3. Q7 repressed the phosphorylation of AKT-kinase.
After 6 h incubation of Q7 (100 µM), sQ7 and nACP, the AKT protein expression of
HEC-1-A cells was detected by using western blotting.
(1 picture or pasted object on this page, not shown here)
(A western blot detects proteins with antibodies after separation by electrophoresis.)

[3] abbreviates: HEC-1-A, MTT, 48 h, mean ± SD, read-out: IC50 (50% decrease of cell viability).

Like-named read-outs stand apart in the source and are kept apart here. Where no end group is shown, it is not given here.

Consider `CSCC[C@H](N)C(=O)N[C@@H](CCC(=O)O)C(=O)N[C@@H](Cc1ccccc1)C(=O)N[C@H](C(=O)N[C@@H](C)C(=O)N[C@@H](CCCCN)C(=O)N[C@@H](CC(C)C)C(=O)N[C@@H](Cc1ccccc1)C(=O)N[C@@H](CCCCN)C(=O)N[C@@H](Cc1ccccc1)C(=O)N[C@@H](Cc1ccccc1)C(=O)N[C@@H](CCCCN)C(=O)N[C@@H](CC(=O)O)C(=O)N[C@@H](CC(C)C)C(=O)N[C@@H](CC(C)C)C(=O)NCC(=O)N[C@@H](CCCCN)C(=O)N[C@@H](Cc1ccccc1)C(=O)N[C@@H](CC(C)C)C(=O)NCC(=O)N[C@@H](CC(N)=O)C(=O)N[C@@H](CC(N)=O)C(=O)O)C(C)C` [ACP NO. 3], for which the values for the IC50 in the test on HEC-1-A cells [1] (setting [3]) and in the test with HUVEC were 8.78 ± 0.77 µM and 9.72 ± 0.84 µM, respectively.
EQQQQQQPQNRRFRE [Q7]: the IC50 in the test on HEC-1-A cells [1] (48 h) is 130 ± 7.53 µM.
As for FKGGGPYGQGVTRGQDLSGKDF [ACP NO. 1], the IC50 in the test with HEC-1-A cells [1] (setting [3]) turned out to be 27.5 ± 2.5 µM; in the test on HUVEC, 29.1 ± 1.72 µM.
The matching figures for GLLGVLGSVAKHVLPHVVPVIAEHL [ACP NO. 8]: 23.7 ± 2.19 µM and 26.1 ± 2.38 µM.
In the case of “RQPQNQRQEQFQEQR [sQ7, reference compound]”, the IC50 in the test on HEC-1-A cells [1] (HEC-1-A, MTT, 0-400 μM, 48 h (Fig. 1A), mean ± SD, read-out: fifty percent of growth inhibition concentration (IC50)) was 158 ± 13.9 µM.
On to “nACP: non-ACP (nACP), human HSP27_36-50 (PRLPEEWSQWLGGSS; UniProt P04792 36-50, looked up, fragment)”, for which the “toxic effects on HEC-1-A cells” value in the test with HEC-1-A cells [1] (MTT, 48 h, up to 400 μM) is listed as “not obviously toxic effects”. Besides, the wound closure rate with HEC-1-A cells [2] was found to be 85%. The “level of phosphorylation of AKT” value in the test on AKT is “no obvious effect”.
